The results in this text go back to US20170280720A1, “ARGININE […] INHIBITORS AND USES THEREOF” (EPIZYME, INC., priority 2014, published 2017).

Assay [1] concerns the target T1, Human CARM1 (PRMT4) (Homo sapiens, UniProt Q86X55).
T1 construct: Flag-CARM1-His; made in house; host or cells: HEK 293F cells (BacMam baculovirus, pFastBacMam)
T1 sequence (Q86X55 2-585 isoform Q86X55-1): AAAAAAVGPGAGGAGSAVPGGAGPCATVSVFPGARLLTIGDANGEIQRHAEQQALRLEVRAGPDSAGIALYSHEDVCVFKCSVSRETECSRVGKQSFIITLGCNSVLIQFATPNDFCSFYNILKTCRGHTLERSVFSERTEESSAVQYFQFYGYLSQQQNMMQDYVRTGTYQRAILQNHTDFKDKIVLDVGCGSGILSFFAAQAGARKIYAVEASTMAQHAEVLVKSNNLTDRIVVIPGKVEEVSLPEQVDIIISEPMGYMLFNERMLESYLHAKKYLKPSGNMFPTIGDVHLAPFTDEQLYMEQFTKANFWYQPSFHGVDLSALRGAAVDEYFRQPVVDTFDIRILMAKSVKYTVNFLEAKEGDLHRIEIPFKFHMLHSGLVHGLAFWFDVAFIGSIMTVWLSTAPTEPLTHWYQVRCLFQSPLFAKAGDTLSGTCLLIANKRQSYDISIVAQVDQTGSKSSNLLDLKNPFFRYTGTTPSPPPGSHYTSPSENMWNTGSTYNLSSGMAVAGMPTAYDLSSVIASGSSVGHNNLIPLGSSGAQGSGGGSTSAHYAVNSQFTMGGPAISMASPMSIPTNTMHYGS
The assay can be described thus: CARM1 biochemical assay (3H-SAM Flashplate, peptide substrate). As to conditions: read-out: CARM1_ IC50. The procedure, abridged: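 FLAG/His-tagged human CARM1 (isoform 1, Δ539-561, baculovirus-expressed), 0.25 nM, preincubated 30 min at room temperature with compound (2% DMSO) in 20 mM Bicine pH 7.6, then reacted with 30 nM 3H-SAM and 250 nM biotinylated H3 16-30 peptide (R26 monomethyl). Stopped with 300 uM cold SAM; labelled peptide captured on streptavidin Flashplate; % inhibition versus DMSO and 1 mM SAH controls fitted to a 4- or 3-parameter curve.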

The subject of assay [2] is asymmetric di-methyl PABP1 in RKO cells. Put plainly: In Cell Western (ICW) for asymmetric di-methyl PABP1 and DNA content in RKO cells. It counts as cell-based. The conditions noted are these: Homo sapiens, RKO. The source says: RKO adherent cells were purchased from ATCC (American Type Culture Collection), Manassas, Va., USA. DMEM/Glutamax medium, penicillin-streptomycin, heat inactivated fetal bovine serum, 0.05% trypsin and D-PBS were purchased from Life Technologies, Grand Island, N.Y., USA. Odyssey blocking buffer, 800CW goat anti-rabbit IgG (H+L) antibody, and Licor Odyssey infrared scanner were purchased from Licor Biosciences, Lincoln, Nebr., USA. Mono-methyl arginine antibody was purchased from Cell Signaling Technology, Danvers, Mass., USA. Methanol was purchased from VWR, Franklin, Mass., USA. 10% Tween 20 was purchased from KPL, Inc., Gaithersburg, Md., USA. […] was purchased from Biostatus Limited, Leicestershire, UK. RKO adherent cells were maintained in growth medium (DMEM/Glutamax medium supplemented with 10% v/v heat inactivated fetal bovine serum and 100 units/mL penicillin-streptomycin) and cultured at 37° C. under 5% CO2. Cell Treatment, in Cell Western (ICW) for Detection of Asymmetric Di-Methyl PABP1 and DNA Content. RKO cells were seeded in assay medium at a concentration of 30,000 cells per mL to a poly-D-lysine coated 384 well culture plate (BD Biosciences 356697) with 50 μL per well. Compound (100 nL) from a 96-well source plate was added directly to 384 well cell plate. Plates were incubated at 37° C., 5% CO2 for 48 hours. After two days of incubation, plates were brought to room temperature outside of the incubator for ten minutes and blotted on paper towels to remove cell media. Cells were fixed for 20 minutes at room temperature by adding 50 μl of 8% PFA followed by aspiration of supernatant with the Biotek EL406 plate washer. Cells were then permeabilized by addition of 50 μL of ice cold 100% methanol directly to each well and incubated for 30 min at room temperature. After 30 min, plates were transferred to a Biotek EL406 plate washer and washed 2 times with 100 μL per well of wash buffer (1×PBS). Next 60 μL per well of Odyssey blocking buffer (Odyssey Buffer with 0.1% Tween 20 (v/v)) were added to each plate and incubated 1 hour at room temperature. Blocking buffer was removed and 20 μL per well of primary antibody was added (asymmetric-methyl PABP1) diluted 1:400 in Odyssey buffer with 0.1% Tween 20 (v/v)) and plates were incubated overnight (16 hours) at 4° C. Plates were washed 5 times with 100 μL per well of wash buffer. Next 20 μL per well of secondary antibody was added (1:800 800CW goat anti-rabbit IgG (H+L) antibody, 1:2000 DRAQS in Odyssey buffer with 0.1% Tween 20 (v/v)) and incubated for 1 hour at room temperature. The plates were washed 5 times with 100 μL per well wash buffer then 2 times with 100 μL per well of water. Plates were allowed to dry at room temperature then imaged on the Licor Odyssey machine which measures integrated intensity at 700 nm and 800 nm wavelengths. Both 700 and 800 channels were scanned. Calculations: First, the ratio for each well was determined by: Each plate included fourteen control wells of DMSO only treatment (minimum inhibition) as well as fourteen control wells for maximum inhibition treated with 20 μM of a reference compound. The average of the ratio values for each control type was calculated and used to determine the percent activation for each test well in the plate. Reference compound was serially diluted three-fold in DMSO for a total of nine test concentrations, beginning at 20 μM. Percent inhibition was determined and IC50 curves were generated using triplicate wells per concentration of compound.

With `CCN(C)C(=O)c1cc(-c2cccc(CN(C)CCN)c2)nc2c1cnn2C(C)C` [Compound 230], the IC50 – broadly, the midpoint of a concentration-inhibition curve – in assay [1] stood at 41.4 nM; in assay [2] (In Cell Western) it was 7630 nM.

For the compound `CNCCN(C)Cc1cccc(-c2cc(C(F)(F)F)c3cnn(C(C)C)c3n2)c1` [Compound 293], the IC50 in assay [1] is 173 nM; in assay [2] (In Cell Western), 17600 nM.

`CCn1ncc2c(C(=O)NCC3CCOCC3)cc(-c3cccc(CN(C)CCNC)c3)nc21` [Compound 227]: the values for the IC50 in assay [1] and in assay [2] (In Cell Western) were 39.9 nM and 4740 nM, respectively.

`CC(C)n1ncc2c(NCC(=O)O)cc(-c3cccc(CN(C)CCN)c3)nc21` [Compound 319]: the IC50 in assay [1] amounted to 401 nM; in assay [2] (In Cell Western), 20000 nM.

In the case of `CNCCN(C)Cc1cccc(-c2cc(C(=O)NC3CCOCC3)c3cnn(C)c3n2)c1` [Compound 284], the concentration for half-maximal inhibition (IC50) in assay [1] turned out to be 137 nM; in assay [2] (In Cell Western) it was 20000 nM.

Regarding `CN(CCN)Cc1cccc(-c2cc(C(=O)NC3CCOCC3)cc(N(C)CC3CC3)c2)c1` [Compound 217], the results for the IC50 in assay [1] and in assay [2] (In Cell Western) were 30 nM and 5690 nM, respectively.

For `CNCCN(C)Cc1cccc(-c2cc(OC3CCOCC3)c3cnn(C(C)C)c3n2)c1` [Compound 187], the IC50 in assay [1] stood at 12 nM; in assay [2] (In Cell Western), 6090 nM.

Turning to `CNCCN(C)Cc1cccc(-c2cc(C(=O)NCc3cccc4ccnn34)c3cnn(C(C)C)c3n2)c1` [Compound 232], the IC50 in assay [1] came to 42.4 nM; in assay [2] (In Cell Western), 1510 nM.

Consider `CC(C)n1ncc2c(C(=O)NCc3nccs3)cc(-c3cccc(CN(C)CCN)c3)nc21` [Compound 189], for which the 50% inhibitory concentration (IC50) in assay [1] was found to be 12.4 nM; in assay [2] (In Cell Western), 1890 nM.

For the compound `CC(C)n1ncc2c(C(=O)N3CCC(F)C3)cc(-c3cccc(CN(C)CCN)c3)nc21` (stereo not drawn) [Compound 257], the figures for the half-maximal inhibitory concentration (IC50) in assay [1] and in assay [2] (In Cell Western) were 63.5 nM and 10300 nM, respectively.

In the case of `CC(C)n1ncc2c(-c3ccco3)cc(-c3cccc(CN(C)CCN)c3)nc21` [Compound 198], the IC50 in assay [1] is 15.1 nM; in assay [2] (In Cell Western), 20000 nM.

`CNCCN(C)Cc1cccc(-c2cc(C3=CCOCC3)c3cnn(C(C)C)c3n2)c1` [Compound 188]: the figures for the IC50 in assay [1] and in assay [2] (In Cell Western) were 12.3 nM and 8310 nM, respectively.

`CCCc1cc(-c2cccc(CN(C)CCNC)c2)nc2c1cnn2C(C)C` [Compound 239]: the IC50 in assay [1] came to 49 nM; in assay [2] (In Cell Western) it was 20000 nM.

Consider `C=CCn1ncc2c(C(=O)NCC3CCOCC3)cc(-c3cccc(CN(C)CCNC)c3)nc21` [Compound 286], for which the IC50 in assay [1] is 148 nM; in assay [2] (In Cell Western), 7150 nM.

As to `CC(C)n1ncc2c(C(=O)NCc3cnc[nH]3)cc(-c3cccc(CN(C)CCN)c3)nc21` [Compound 206], the figures for the IC50 in assay [1] and in assay [2] (In Cell Western) were 19.7 nM and 20000 nM, respectively.

Turning to `CC(C)n1ncc2c(C(=O)NCc3ccncc3)cc(-c3cccc(CN(C)CCN)c3)nc21` [Compound 172], the figures for the concentration for half-maximal inhibition (IC50) in assay [1] and in assay [2] (In Cell Western) were 5.67 nM and 3140 nM, respectively.

Consider `CC(C)n1ncc2c(C(=O)NC3CCOC3)cc(-c3cccc(CN(C)CCN)c3)nc21` (stereo not drawn) [Compound 202], for which the IC50 in assay [1] is 19.1 nM; in assay [2] (In Cell Western) it was 1990 nM.

As to `CC(C)n1ncc2c(C(=O)NCc3ccn(C)n3)cc(-c3cccc(CN(C)CCN)c3)nc21` [Compound 220], the IC50 in assay [1] came out at 32.5 nM; in assay [2] (In Cell Western) it was 1240 nM.

Turning to `CN(CCN)Cc1cccc(-c2nc(NC3CCOCC3)c3cnn(C4CC4)c3n2)c1` [Compound 174], the IC50 amounted to 6.11 nM in assay [1] and 5040 nM in assay [2] (In Cell Western).

With `CC(C)n1ncc2c(C(=O)N3CCC(F)(F)C3)cc(-c3cccc(CN(C)CCN)c3)nc21` [Compound 261], the IC50 is 69.4 nM in assay [1] and 20000 nM in assay [2] (In Cell Western).

Turning to `CNCCN(C)Cc1cccc(-c2cc(C(=O)NCC(F)(F)F)c3cnn(C(C)C)c3n2)c1` [Compound 288], the results for the IC50 in assay [1] and in assay [2] (In Cell Western) were 159 nM and 3440 nM, respectively.

Take `CNCCN(C)Cc1cccc(-c2cc(CO)c3cnn(C(C)C)c3n2)c1` [Compound 290]: the IC50 in assay [1] came to 167 nM; in assay [2] (In Cell Western), 20000 nM.

As for `CCN(Cc1cccnc1)C(=O)c1cc(-c2cccc(CN(C)CCN)c2)nc2c1cnn2C(C)C` [Compound 211], the results for the concentration for half-maximal inhibition (IC50) in assay [1] and in assay [2] (In Cell Western) were 23.9 nM and 3250 nM, respectively.

For `COC1CCN(C(=O)c2cc(-c3cccc(CN(C)CCN)c3)nc3c2cnn3C(C)C)C1` (stereo not drawn) [Compound 274], the values for the IC50 in assay [1] and in assay [2] (In Cell Western) were 89.3 nM and 20000 nM, respectively.

For `CC(C)n1ncc2c(C(=O)NCC(F)(F)F)cc(-c3cccc(CN(C)CCN)c3)nc21` [Compound 222], the IC50 was determined as 34.4 nM in assay [1] and 3820 nM in assay [2] (In Cell Western).

Regarding `CC(C)n1ncc2c(C(=O)N3CCN(C)C(=O)C3)cc(-c3cccc(CN(C)CCN)c3)nc21` [Compound 272], the IC50 was 84.8 nM in assay [1] and 20000 nM in assay [2] (In Cell Western).

In the case of `CC(C)n1ncc2c(C(=O)N(C)Cc3ccccn3)cc(-c3cccc(CN(C)CCN)c3)nc21` [Compound 282], the IC50 in assay [1] came out at 130 nM; in assay [2] (In Cell Western) it was 8200 nM.

As for `CC(C)n1ncc2c(C(=O)NC3CCOCC3)cc(-c3cccc(CN(C)CCNC4CC4)c3)nc21` [Compound 295], the IC50 in assay [1] stood at 181 nM; in assay [2] (In Cell Western), 12400 nM.

In the case of `Cc1cc(C)c(CNC(=O)c2cc(-c3cc(CNCCN)ccc3C)cc3c2cnn3C(C)C)c(=O)[nH]1` [Compound 388], the IC50 in assay [1] was 149 nM; in assay [2] (48 h), at least 20000 nM.

For the compound `CCOC(=O)Nc1cc(-c2cccc(CN(C)CCNC)c2)nc2c1cnn2C(C)C` [Compound 205], the IC50 in assay [1] turned out to be 19.6 nM; in assay [2] (In Cell Western), 5750 nM.

As to `CC(C)n1ncc2c(C(=O)NCc3cncn3C)cc(-c3cccc(CN(C)CCN)c3)nc21` [Compound 185], the IC50 in assay [1] came out at 11.7 nM; in assay [2] (In Cell Western) it was 10800 nM.

Consider `CC(C)n1ncc2c(C(=O)N(C)Cc3cccnc3)cc(-c3cccc(CN(C)CCN)c3)nc21` [Compound 224], for which the IC50 in assay [1] is 37.5 nM; in assay [2] (In Cell Western), 8470 nM.

For `CNCCN(C)Cc1cccc(-c2cc(C(=O)NCc3cn(C)cn3)c3cnn(C(C)C)c3n2)c1` [Compound 223], the IC50 in assay [1] is 35.3 nM; in assay [2] (In Cell Western), 3470 nM.

Turning to `CNCCN(C)Cc1cccc(-c2cc(C(=O)NCc3cnc4ccccn34)c3cnn(C(C)C)c3n2)c1` [Compound 176], the half-inhibitory concentration (IC50) in assay [1] was 7.29 nM; in assay [2] (In Cell Western) it was 865 nM.

Turning to `CC(C)n1ncc2c(C(=O)N3CCC3)cc(-c3cccc(CN(C)CCN)c3)nc21` [Compound 201], the IC50 in assay [1] came out at 18.2 nM; in assay [2] (In Cell Western), 3050 nM.

With `CNCCN(C)Cc1cccc(-c2cc(-c3ccco3)c3cnn(C(C)C)c3n2)c1` [Compound 209], the figures for the IC50 in assay [1] and in assay [2] (In Cell Western) were 21.7 nM and 20000 nM, respectively.
